# Results: US8551957B2, “Pharmaceutical composition comprising a glucopyranosyl-substituted benzene derivate” (Boehringer Ingelheim International GmbH, priority 2007, dated 2013)
# What was measured:
# [1] = in the diabetic, metformin on its own; cited from earlier work
# [2] = test system: Zucker Diabetic Fatty (ZDF) rats (ZDF/Crl-Lepr^fa); assay: oral glucose tolerance test in overnight fasted ZDF rats (1st Example); assay type: in vivo, rat; details: male ZDF rats
# Procedure: According to a first example an oral glucose tolerance test is performed in overnight fasted 9-weeks old male Zucker Diabetic Fatty (ZDF) rats (ZDF/Crl-Lepr^fa). A pre-dose blood sample is obtained by tail bleed. Blood glucose is measured with a glucometer, and the animals are randomized for blood glucose (n=5/group). Subsequently, the groups receive a single oral administration of either vehicle alone (0.5% aqueous hydroxyethylcellulose containing 3 mM HCl and 0.015% Polysorbat 80) or vehicle containing either the glucopyranosyl-substituted benzene derivative or the DPP IV inhibitor or the combination of the glucopyranosyl-substituted benzene derivative with the DPP IV inhibitor. The animals receive an oral glucose load (2 g/kg) 30 min after compound administration. Blood glucose is measured in tail blood 30 min, 60 min, 90 min, 120 min, and 180 min after the glucose challenge. Glucose excursion is quantified by calculating the reactive glucose AUC. The data are presented as mean±SEM. The two-sided unpaired Student t-test is used for statistical comparison of the control group and the active groups.
# “Cpd. A” is the DPP IV inhibitor 1-[(4-methyl-quinazolin-2-yl)methyl]-3-methyl-7-(2-butyn-1-yl)-8-(3-(R)-amino-piperidin-1-yl)-xanthine at a dose of 1 mg/kg. Cpd. […]
# [3] = test system: Sprague Dawley rats (Crl:CD(SD)); assay: oral glucose tolerance test in overnight fasted Sprague Dawley rats (2nd Example); assay type: in vivo, rat; details: male Sprague Dawley rats, not statistically significant
# Procedure: (§1) According to a second example an oral glucose tolerance test is performed in overnight fasted male Sprague Dawley rats (Crl:CD(SD)) with a body weight of about 200 g. A pre-dose blood sample is obtained by tail bleed. Blood glucose is measured with a glucometer, and the animals are randomized for blood glucose (n=5/group). Subsequently, the groups receive a single oral administration of either vehicle alone (0.5% aqueous hydroxyethylcellulose containing 0.015% Polysorbat 80) or vehicle containing either the glucopyranosyl-substituted benzene derivative or the DPPIV inhibitor or the combination of the glucopyranosyl-substituted benzene derivative with the DPPIV inhibitor. The animals receive an oral glucose load (2 g/kg) 30 min after compound administration. Blood glucose is measured in tail blood 30 min, 60 min, 90 min, and 120 min after the glucose challenge. Glucose excursion is quantified by calculating the reactive glucose AUC. The data are presented as mean±S.E.M. Statistical comparisons are conducted by Student's t test.
# “Cpd. A” is the glucopyranosyl-substituted benzene derivative (9), i.e. 1-chloro-4-(β-D-glucopyranos-1-yl)-2-[4-((S)-tetrahydrofuran-3-yloxy)-benzyl]-benzene, administered at a dose of 3 mg/kg. The DPPIV inhibitor saxagliptin is administered at a dose of 0.3 mg/kg. […]
# [4] = test system: Sprague Dawley rats (Crl:CD(SD)); assay: oral glucose tolerance test in overnight fasted Sprague Dawley rats (3rd Example); assay type: in vivo, rat; details: male Sprague Dawley rats, not statistically significant
# Procedure: as §1
# In a third example the same experimental setting is employed as in the second example as described herein before. The glucopyranosyl-substituted benzene derivative (9), i.e. 1-chloro-4-(β-D-glucopyranos-1-yl)-2-[4-((S)-tetrahydrofuran-3-yloxy)-benzyl]-benzene, is administered at a dose of 3 mg/kg. […]
# [5] = single oral dose 3 mg/kg 30 min before glucose load 2 g/kg
smiles,measurement,setting,value
CN(C)C(=N)N=C(N)N [metformin],average improvement in the HbA1c value,[1],1.0-1.5%
"OC[C@H]1O[C@@H](c2ccc(Cl)c(Cc3ccc(O[C@H]4CCOC4)cc3)c2)[C@H](O)[C@@H](O)[C@@H]1O [(9), 1-chloro-4-(β-D-glucopyranos-1-yl)-2-[4-((S)-tetrahydrofuran-3-yloxy)-benzyl]-benzene]",reduction of glucose excursion (reactive glucose AUC),[2]; single oral dose 3 mg/kg 30 min before oral glucose load 2 g/kg,51%
same,reduction of glucose excursion (reactive glucose AUC),[3]; [5],21%
same,reduction of glucose excursion (reactive glucose AUC),[4]; [5],21%
"N#C[C@@H]1C[C@@H]2C[C@@H]2N1C(=O)[C@@H](N)C12CC3CC(CC(O)(C3)C1)C2 [saxagliptin, (1S,3S,5S)-2-{(2S)-2-amino-2-(3-hydroxyadamantan-1-yl)acetyl}-2-azabicyclo[3.1.0]hexane-3-carbonitrile, reference compound]",reduction of glucose excursion (reactive glucose AUC),[3]; single oral dose 0.3 mg/kg 30 min before glucose load 2 g/kg,12%
"CC#CCn1c(N2CCC[C@@H](N)C2)nc2c1c(=O)n(Cc1nc(C)c3ccccc3n1)c(=O)n2C [Cpd. A, 1-[(4-methyl-quinazolin-2-yl)methyl]-3-methyl-7-(2-butyn-1-yl)-8-(3-(R)-amino-piperidin-1-yl)-xanthine]",reduction of glucose excursion (reactive glucose AUC),[2]; single oral dose 1 mg/kg 30 min before oral glucose load 2 g/kg,56%
"N[C@@H](CC(=O)N1CCn2c(nnc2C(F)(F)F)C1)Cc1cc(F)c(F)cc1F [sitagliptin, (3R)-3-amino-1-[3-(trifluoromethyl)-5,6,7,8-tetrahydro-5H-[1,2,4]triazolo[4,3-a]pyrazin-7-yl]-4-(2,4,5-trifluorophenyl)butan-1-one, reference compound]",reduction of glucose excursion (reactive glucose AUC),[4]; single oral dose 10 mg/kg 30 min before glucose load 2 g/kg,16%
